Laboratory results: patent publication US20250147039A1, “Compounds for complexation of rare earth elements and/or s-, p-, d- block metals, their coordination compounds, peptide conjugates, method of their preparation and use thereof” (USTAV ORGANICKE CHEMIE A BIOCHEMIE AV CR V.V.I., priority 2021, published 2025)

Key:
[1] = Formation of 1,5-cz-[M(Lig)] from Lig and M^III ions (metal dependent click-zip) (Charts 4, 5); type: physicochemical; settings: MOPS/NaOH buffer pH 7.0; for conversion to 1,5-cz-[M(Lig)], Sc^III / conversion to 1,5-cz-[M(Lig)], Y^III: TD728, TD827 in 50% i-PrOH; for conversion to 1,5-cz-[M(Lig)], Y^III: TD714 sum of two diastereoisomers
[2] = Formation of 1,5-cz-[Ln(Lig)] from Lig and Ln^III ions (metal dependent click-zip), MOPS/NaOH buffer pH 7.0, analytical HPLC (Charts 1, 2); settings: MOPS/NaOH buffer pH 7.0

CC(C)(C#Cc1cccc(CN2CCN(CC(=O)O)CCN(Cc3cccc(CN=[N+]=[N-])n3)CCN(CC(=O)O)CC2)n1)NC(=O)OC(C)(C)C [TD1105]
conversion to 1,5-cz-[Ln(Lig)] with hydrolysed group in the side chain, Sc^III ([1]; 1 week at 80° C.): 60%
conversion to 1,5-cz-[Ln(Lig)] with hydrolysed group in the side chain, Y^III ([1]; 1 week at 80° C.): 87%
conversion to 1,5-cz-[M(Lig)], Sc^III ([1]; 1 week at 80° C.): 0%
conversion to 1,5-cz-[M(Lig)], Y^III ([1]; 1 week at 80° C.): 0%
conversion to 1,5-cz-[Ln(Lig)] with hydrolysed group in the side chain, Sc^III ([1]; 1 hour at 80° C.): 0%
conversion to 1,5-cz-[Ln(Lig)] with hydrolysed group in the side chain, Y^III ([1]; 1 hour at 80° C.): 1%
conversion to 1,5-cz-[M(Lig)], Sc^III ([1]; 1 hour at 80° C.): 0%
conversion to 1,5-cz-[M(Lig)], Y^III ([1]; 1 hour at 80° C.): 2%
conversion to 1,5-cz-[Ln(Lig)] with hydrolysed group in the side chain, Ce^III ([2]; after 1 week at 80° C.): 8%
conversion to 1,5-cz-[Ln(Lig)], Ce^III ([2]; after 1 week at 80° C.): 0%
conversion to 1,5-cz-[Ln(Lig)] with hydrolysed group in the side chain, Ce^III ([2]; after 1 hour at 80° C.): 0%
conversion to 1,5-cz-[Ln(Lig)], Ce^III ([2]; after 1 hour at 80° C.): 0%
conversion to 1,5-cz-[Ln(Lig)] with hydrolysed group in the side chain, Dy^III ([2]; after 1 week at 80° C.): 82%
conversion to 1,5-cz-[Ln(Lig)], Dy^III ([2]; after 1 week at 80° C.): 0%
conversion to 1,5-cz-[Ln(Lig)] with hydrolysed group in the side chain, Dy^III ([2]; after 1 hour at 80° C.): 0%
conversion to 1,5-cz-[Ln(Lig)], Dy^III ([2]; after 1 hour at 80° C.): 2%
conversion to 1,5-cz-[Ln(Lig)] with hydrolysed group in the side chain, Er^III ([2]; after 1 week at 80° C.): 92%
conversion to 1,5-cz-[Ln(Lig)], Er^III ([2]; after 1 week at 80° C.): 1%
conversion to 1,5-cz-[Ln(Lig)] with hydrolysed group in the side chain, Er^III ([2]; after 1 hour at 80° C.): 2%
conversion to 1,5-cz-[Ln(Lig)], Er^III ([2]; after 1 hour at 80° C.): 4%
conversion to 1,5-cz-[Ln(Lig)] with hydrolysed group in the side chain, Eu^III ([2]; after 1 week at 80° C.): 49%
conversion to 1,5-cz-[Ln(Lig)], Eu^III ([2]; after 1 week at 80° C.): 1%
conversion to 1,5-cz-[Ln(Lig)] with hydrolysed group in the side chain, Eu^III ([2]; after 1 hour at 80° C.): 0%
conversion to 1,5-cz-[Ln(Lig)], Eu^III ([2]; after 1 hour at 80° C.): 1%
conversion to 1,5-cz-[Ln(Lig)] with hydrolysed group in the side chain, Gd^III ([2]; after 1 week at 80° C.): 57%
conversion to 1,5-cz-[Ln(Lig)], Gd^III ([2]; after 1 week at 80° C.): 2%
conversion to 1,5-cz-[Ln(Lig)] with hydrolysed group in the side chain, Gd^III ([2]; after 1 hour at 80° C.): 0%
conversion to 1,5-cz-[Ln(Lig)], Gd^III ([2]; after 1 hour at 80° C.): 1%
conversion to 1,5-cz-[Ln(Lig)] with hydrolysed group in the side chain, Ho^III ([2]; after 1 week at 80° C.): 87%
conversion to 1,5-cz-[Ln(Lig)], Ho^III ([2]; after 1 week at 80° C.): 1%
conversion to 1,5-cz-[Ln(Lig)] with hydrolysed group in the side chain, Ho^III ([2]; after 1 hour at 80° C.): 1%
conversion to 1,5-cz-[Ln(Lig)], Ho^III ([2]; after 1 hour at 80° C.): 3%
conversion to 1,5-cz-[Ln(Lig)] with hydrolysed group in the side chain, La^III ([2]; after 1 week at 80° C.): 11%
conversion to 1,5-cz-[Ln(Lig)], La^III ([2]; after 1 week at 80° C.): 0%
conversion to 1,5-cz-[Ln(Lig)] with hydrolysed group in the side chain, La^III ([2]; after 1 hour at 80° C.): 0%
conversion to 1,5-cz-[Ln(Lig)], La^III ([2]; after 1 hour at 80° C.): 0%
conversion to 1,5-cz-[Ln(Lig)] with hydrolysed group in the side chain, Lu^III ([2]; after 1 week at 80° C.): 98%
conversion to 1,5-cz-[Ln(Lig)], Lu^III ([2]; after 1 week at 80° C.): 1%
conversion to 1,5-cz-[Ln(Lig)] with hydrolysed group in the side chain, Lu^III ([2]; after 1 hour at 80° C.): 9%
conversion to 1,5-cz-[Ln(Lig)], Lu^III ([2]; after 1 hour at 80° C.): 8%
conversion to 1,5-cz-[Ln(Lig)] with hydrolysed group in the side chain, Nd^III ([2]; after 1 week at 80° C.): 23%
conversion to 1,5-cz-[Ln(Lig)], Nd^III ([2]; after 1 week at 80° C.): 0%
conversion to 1,5-cz-[Ln(Lig)] with hydrolysed group in the side chain, Nd^III ([2]; after 1 hour at 80° C.): 0%
conversion to 1,5-cz-[Ln(Lig)], Nd^III ([2]; after 1 hour at 80° C.): 1%
conversion to 1,5-cz-[Ln(Lig)] with hydrolysed group in the side chain, Pr^III ([2]; after 1 week at 80° C.): 21%
conversion to 1,5-cz-[Ln(Lig)], Pr^III ([2]; after 1 week at 80° C.): 0%
conversion to 1,5-cz-[Ln(Lig)] with hydrolysed group in the side chain, Pr^III ([2]; after 1 hour at 80° C.): 0%
conversion to 1,5-cz-[Ln(Lig)], Pr^III ([2]; after 1 hour at 80° C.): 0%
conversion to 1,5-cz-[Ln(Lig)] with hydrolysed group in the side chain, Sm^III ([2]; after 1 week at 80° C.): 44%
conversion to 1,5-cz-[Ln(Lig)], Sm^III ([2]; after 1 week at 80° C.): 1%
conversion to 1,5-cz-[Ln(Lig)] with hydrolysed group in the side chain, Sm^III ([2]; after 1 hour at 80° C.): 0%
conversion to 1,5-cz-[Ln(Lig)], Sm^III ([2]; after 1 hour at 80° C.): 1%
conversion to 1,5-cz-[Ln(Lig)] with hydrolysed group in the side chain, Tb^III ([2]; after 1 week at 80° C.): 74%
conversion to 1,5-cz-[Ln(Lig)], Tb^III ([2]; after 1 week at 80° C.): 1%
conversion to 1,5-cz-[Ln(Lig)] with hydrolysed group in the side chain, Tb^III ([2]; after 1 hour at 80° C.): 0%
conversion to 1,5-cz-[Ln(Lig)], Tb^III ([2]; after 1 hour at 80° C.): 2%
conversion to 1,5-cz-[Ln(Lig)] with hydrolysed group in the side chain, Tm^III ([2]; after 1 week at 80° C.): 94%
conversion to 1,5-cz-[Ln(Lig)], Tm^III ([2]; after 1 week at 80° C.): 1%
conversion to 1,5-cz-[Ln(Lig)] with hydrolysed group in the side chain, Tm^III ([2]; after 1 hour at 80° C.): 3%
conversion to 1,5-cz-[Ln(Lig)], Tm^III ([2]; after 1 hour at 80° C.): 5%
conversion to 1,5-cz-[Ln(Lig)] with hydrolysed group in the side chain, Yb^III ([2]; after 1 week at 80° C.): 97%
conversion to 1,5-cz-[Ln(Lig)], Yb^III ([2]; after 1 week at 80° C.): 1%
conversion to 1,5-cz-[Ln(Lig)] with hydrolysed group in the side chain, Yb^III ([2]; after 1 hour at 80° C.): 5%
conversion to 1,5-cz-[Ln(Lig)], Yb^III ([2]; after 1 hour at 80° C.): 7%
